We go through eight molecules from paper doi:10.1101/2021.05.28.446239v2 (biorxiv, 2021).

One assay relates to full-length lungfish MR. Briefly: luciferase reporter transactivation. In kind it is cell-based, Protopterus dolloi. The following applies: agonist; HEK293, TAT3-luc promoter.
In assay [1] the test system is truncated lungfish MR (MR-CDE). As to the kind of experiment: luciferase reporter transactivation. The note with it: agonist; HEK293, TAT3-luc promoter. In kind it is cell-based, Protopterus dolloi.

SMILES strings stand for the structures. pEC50: −log10 of the molar value.

For `CC(=O)[C@H]1CC[C@H]2[C@@H]3CCC4=CC(=O)CC[C@]4(C)[C@H]3CC[C@]12C` [progesterone], the values for the negative-log EC50 (pEC50) (in the assay on full-length lungfish MR; in assay [1]) were 10.52 and 10.36, respectively.

With `C[C@@H]1C[C@H]2[C@@H]3CCC4=CC(=O)C=C[C@]4(C)[C@@]3(F)[C@@H](O)C[C@]2(C)[C@@]1(O)C(=O)CO` [dexamethasone], the negative logarithm of the EC50 (pEC50) in the assay with full-length lungfish MR is 8.33; in assay [1], 8.11.

As for `C[C@]12CCC(=O)C=C1CC[C@@H]1[C@@H]2[C@@H](O)C[C@@]2(C)[C@H]1CC[C@]2(O)C(=O)CO` [cortisol], the pEC50 with full-length lungfish MR is 7.18; in assay [1], 7.06.

Turning to `C[C@]12C[C@H](O)[C@H]3[C@@H](CCC4=CC(=O)CC[C@@]43C)[C@@H]1CC[C@@H]2C(=O)CO` [corticosterone], the values for the negative-log EC50 (pEC50) (in the assay with full-length lungfish MR; in assay [1]) were 7.64 and 7.07, respectively.

`C[C@]12CCC(=O)C=C1CC[C@@H]1[C@@H]2[C@@H](O)C[C@]2(C=O)[C@@H](C(=O)CO)CC[C@@H]12` [aldosterone]: the negative-log EC50 (pEC50) in the assay with full-length lungfish MR was 10.40; in assay [1] it was 9.62.

As for `C[C@]12C=CC(=O)C=C1CC[C@H]1[C@@H]3C[C@@H](O)[C@](O)(C(=O)CO)[C@@]3(C)C[C@H](O)[C@@]12F` [triamcinolone], the results for the pEC50 (in the assay on full-length lungfish MR; in assay [1]) were 8.89 and 8.62, respectively.

In the case of `C[C@]12CC[C@H]3[C@@H](CCC4=CC(=O)CC[C@@]43C)[C@@H]1CC[C@@H]2C(=O)CO` [11-deoxycorticosterone], the pEC50 with full-length lungfish MR was 10.40; in assay [1] it was 9.89.

As for `C[C@]12CCC(=O)C=C1CC[C@@H]1[C@@H]2CC[C@@]2(C)[C@H]1CC[C@]2(O)C(=O)CO` [11-deoxycortisol], the pEC50 with full-length lungfish MR is 9.77; in assay [1], 9.57.
